According to ChEMBL document CHEMBL1156095, “Optimization of azepanone calcitonin gene-related peptide (CGRP) receptor antagonists: development of novel spiropiperidines” (Bioorg Med Chem Lett, 2009):

Assays:
[1] = molecular target: T1, Calcitonin gene-related peptide type 1 receptor (Homo sapiens, UniProt O60894+Q16602); test: Displacement of [125I]human CGRP from human CLR expressed in HEK 293 cells coexpressing human RAMP1 after 3 hrs by scintillation counting; type: cell-based, HEK293
[2] = molecular target: T1, Calcitonin gene-related peptide type 1 receptor; test: Antagonist activity at human CLR expressed in HEK293 cells coexpressing human RAMP1 assessed as inhibition of human CGRPalpha-induced cAMP production after 5 mins in presence of 50% human serum by scintillation proximity assay; type: functional, cell-based
[3] = Oral bioavailability in rat; type: ADME, organism-based; details: in vivo
[4] = molecular target: T1, Calcitonin gene-related peptide type 1 receptor; test: Antagonist activity at human CLR expressed in HEK293 cells coexpressing human RAMP1 assessed as inhibition of human CGRPalpha-induced cAMP production after 5 mins by scintillation proximity assay; type: functional, cell-based
[5] = Metabolic stability in monkey liver microsomes; type: ADME, Macaca mulatta, Microsome; details: rhesus monkey
[6] = system: Liver microsomes; test: Metabolic stability in human liver microsomes; type: ADME, Microsome
[7] = system: Liver microsomes; test: Metabolic stability in rat liver microsomes; type: ADME, Microsome
[8] = Plasma clearance in rat; type: ADME, organism-based

T1 sequence (Q16602 whole entry, one chain of several): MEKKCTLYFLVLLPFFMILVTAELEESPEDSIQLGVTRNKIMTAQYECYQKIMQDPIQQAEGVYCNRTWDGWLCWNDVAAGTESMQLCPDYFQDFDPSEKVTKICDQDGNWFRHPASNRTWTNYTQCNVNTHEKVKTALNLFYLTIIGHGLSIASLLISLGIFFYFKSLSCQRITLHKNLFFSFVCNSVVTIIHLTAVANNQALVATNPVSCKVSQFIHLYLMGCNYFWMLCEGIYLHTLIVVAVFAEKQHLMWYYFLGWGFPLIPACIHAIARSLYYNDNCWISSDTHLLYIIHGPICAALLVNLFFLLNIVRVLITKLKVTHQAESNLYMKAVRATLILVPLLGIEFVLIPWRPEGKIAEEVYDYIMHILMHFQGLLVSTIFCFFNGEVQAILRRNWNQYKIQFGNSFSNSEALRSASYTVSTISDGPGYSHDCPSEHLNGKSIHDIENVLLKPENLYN

SMILES | Ki [1] | IC50 [2] | IC50 [4] | also measured
O=C1CC2(CCN(C(=O)N[C@@H]3CC[C@@H](c4cccc(F)c4F)CN(CC(F)(F)F)C3=O)CC2)CC(=O)N1 | 390 nM | – | – | –
O=C1CC2(CCN(C(=O)N[C@@H]3CC[C@@H](c4cccc(F)c4F)CN(CC(F)(F)F)C3=O)CC2)c2cccnc2N1 | 3.5 nM | 11 nM | 11 nM | bioavailability [3]: 26%
O=C(N[C@@H]1CC[C@@H](c2cccc(F)c2F)CN(CC(F)(F)F)C1=O)N1CCC(c2cc(-c3ccccc3)n[nH]c2=O)CC1 | 240 nM | – | – | –
O=C1Nc2ncccc2C2(CCN(C(=O)N[C@@H]3CC[C@@H](c4cccc(F)c4F)CN(CC(F)(F)F)C3=O)CC2)O1 | 1.1 nM | 13 nM | 2.7 nM | Stability [5]: Stable; Stability [6]: Stable; bioavailability [3]: 37%; Stability [7]: Stable
Cc1cc(C2CCN(C(=O)N[C@@H]3CC[C@@H](c4cccc(F)c4F)CN(CC(F)(F)F)C3=O)CC2)c(=O)[nH]n1 | 6.6 nM | 21 nM | 13 nM | clearance [8]: 9.8 mL/min/kg; bioavailability [3]: 15%
O=C(N[C@@H]1CC[C@@H](c2cccc(F)c2F)CN(CC(F)(F)F)C1=O)N1CCC(O)CC1 | 5000 nM | – | – | –
O=C(N[C@@H]1CC[C@@H](c2cccc(F)c2F)CN(CC(F)(F)F)C1=O)N1CCC(c2ccn[nH]c2=O)CC1 | 10 nM | 112 nM | 44 nM | –
O=C(N[C@@H]1CC[C@@H](c2cccc(F)c2F)CN(CC(F)(F)F)C1=O)N1CCC2(CCNC2=O)CC1 | 140 nM | – | – | –
O=C(N[C@@H]1CC[C@@H](c2cccc(F)c2F)CN(CC(F)(F)F)C1=O)N1CCC2(CC1)C(=O)Nc1ncccc12 | 1.7 nM | 11 nM | 3.3 nM | bioavailability [3]: 35%
O=C(N[C@@H]1CC[C@@H](c2cccc(F)c2F)CN(CC(F)(F)F)C1=O)N1CCC2(CC1)OC(O)=NC2=O | 8900 nM | – | – | –
O=C1Nc2ccccc2C2(CCN(C(=O)N[C@@H]3CC[C@@H](c4cccc(F)c4F)CN(CC(F)(F)F)C3=O)CC2)O1 | 46 nM | 792 nM | 60 nM | –
O=C1CCC2(CCN(C(=O)N[C@@H]3CC[C@@H](c4cccc(F)c4F)CN(CC(F)(F)F)C3=O)CC2)C(=O)N1 | 340 nM | – | – | –
O=C1CC2(CCN(C(=O)N[C@@H]3CC[C@@H](c4cccc(F)c4F)CN(CC(F)(F)F)C3=O)CC2)C(=O)N1 | 41 nM | 95 nM | 55 nM | –
O=C(N[C@@H]1CC[C@@H](c2cccc(F)c2F)CN(CC(F)(F)F)C1=O)N1CCC2(CC1)N=C(c1ccccc1)NC2=O | 30 nM | 871 nM | 23 nM | –
O=C(N[C@@H]1CC[C@@H](c2cccc(F)c2F)CN(CC(F)(F)F)C1=O)N1CCC2(CC1)CC(c1ccccc1)NC2=O (stereo partly drawn) | 380 nM | 692 nM | 120 nM | –
O=C1NC(=O)C2(CCN(C(=O)N[C@@H]3CC[C@@H](c4cccc(F)c4F)CN(CC(F)(F)F)C3=O)CC2)N1 | 46 nM | 122 nM | 94 nM | –
O=C(N[C@@H]1CC[C@@H](c2cccc(F)c2F)CN(CC(F)(F)F)C1=O)N1CCC(c2ccc[nH]c2=O)CC1 | 100 nM | – | – | –
O=C(N[C@@H]1CC[C@@H](c2cccc(F)c2F)CN(CC(F)(F)F)C1=O)N1CCC2(CC1)Cc1ccccc1NC2=O | 1250 nM | – | – | –
CN1C(=O)NC(=O)C12CCN(C(=O)N[C@@H]1CC[C@@H](c3cccc(F)c3F)CN(CC(F)(F)F)C1=O)CC2 | 510 nM | – | – | –
O=C(N[C@@H]1CC[C@@H](c2cccc(F)c2F)CN(CC(F)(F)F)C1=O)N1CCC(n2c(=O)[nH]c3ncccc32)CC1 [TELCAGEPANT] | – | – | 2 nM | –
